Assay results taken from ChEMBL document CHEMBL5252648, “Design, synthesis and bioactivity evaluation of a series of quinazolinone derivatives as potent PI3Kγ antagonist” (Bioorg Med Chem, 2023).
The source made the active and inactive calls. No cut-off for these calls is given here.

Legend:
Jurkat [1] = experiment: Upregulation of phosphorylated p38 protein expression in human Jurkat cells at 1 uM measured for 3 hrs; type: functional, cell-based
[2] = target: Phosphatidylinositol 4,5-bisphosphate 3-kinase catalytic subunit beta isoform (Homo sapiens, UniProt P42338); experiment: Antagonist activity at PI3Kbeta (unknown origin) using PIP2 as substrate in presence of ATP incubated for 30 to 60 mins by ADP-glo based luminescence assay
Jurkat [3] = experiment: Induction of apoptosis against human Jurkat cells assessed as early apoptotic cells at 1 uM measured for 24 hrs by Annexin V-FITC/propidium iodide staining based flow cytometry (reference value: 5.76%); type: functional
Jurkat [4] = experiment: Induction of apoptosis against human Jurkat cells assessed as late apoptotic cells at 0.1 uM measured for 24 hrs by Annexin V-FITC/propidium iodide staining based flow cytometry (reference value: 0.00%); type: functional
THP-1 [5] = experiment: Induction of apoptosis against human THP-1 cells assessed as late apoptotic cells at 1 uM measured for 24 hrs by Annexin V-FITC/propidium iodide staining based flow cytometry (reference value: 3.70%); type: functional
THP-1 [6] = experiment: Induction of apoptosis against human THP-1 cells assessed as necrotic cells at 0.1 uM measured for 24 hrs by Annexin V-FITC/propidium iodide staining based flow cytometry (reference value: 0.316%); type: functional
[7] = target: Phosphatidylinositol 4,5-bisphosphate 3-kinase catalytic subunit gamma isoform (Homo sapiens, UniProt P48736); experiment: Antagonist activity at PI3Kgamma (unknown origin) assessed as inhibition rate at 20 nM using PIP2 as substrate in presence of ATP incubated for 30 to 60 mins by ADP-glo based luminescence assay relative to control; conditions: filed as antagonist, time 30-60 min
THP-1 [8] = experiment: Induction of apoptosis against human THP-1 cells assessed as early apoptotic cells at 10 uM measured for 24 hrs by Annexin V-FITC/propidium iodide staining based flow cytometry (reference value: 10.3%); type: functional
Jurkat [9] = experiment: Induction of apoptosis against human Jurkat cells assessed as early apoptotic cells at 10 uM measured for 24 hrs by Annexin V-FITC/propidium iodide staining based flow cytometry (reference value: 5.76%); type: functional
Jurkat [10] = experiment: Induction of apoptosis against human Jurkat cells assessed as late apoptotic cells at 10 uM measured for 24 hrs by Annexin V-FITC/propidium iodide staining based flow cytometry (reference value: 0.00%); type: functional
[11] = target: T1, Phosphatidylinositol 4,5-bisphosphate 3-kinase catalytic subunit delta isoform (Homo sapiens) (UniProt O00329); experiment: Antagonist activity at PI3Kdelta (unknown origin) assessed as inhibition rate at 20 nM using PIP2 as substrate in presence of ATP incubated for 30 to 60 mins by ADP-glo based luminescence assay relative to control; conditions: time 30-60 min
T1 sequence (whole entry): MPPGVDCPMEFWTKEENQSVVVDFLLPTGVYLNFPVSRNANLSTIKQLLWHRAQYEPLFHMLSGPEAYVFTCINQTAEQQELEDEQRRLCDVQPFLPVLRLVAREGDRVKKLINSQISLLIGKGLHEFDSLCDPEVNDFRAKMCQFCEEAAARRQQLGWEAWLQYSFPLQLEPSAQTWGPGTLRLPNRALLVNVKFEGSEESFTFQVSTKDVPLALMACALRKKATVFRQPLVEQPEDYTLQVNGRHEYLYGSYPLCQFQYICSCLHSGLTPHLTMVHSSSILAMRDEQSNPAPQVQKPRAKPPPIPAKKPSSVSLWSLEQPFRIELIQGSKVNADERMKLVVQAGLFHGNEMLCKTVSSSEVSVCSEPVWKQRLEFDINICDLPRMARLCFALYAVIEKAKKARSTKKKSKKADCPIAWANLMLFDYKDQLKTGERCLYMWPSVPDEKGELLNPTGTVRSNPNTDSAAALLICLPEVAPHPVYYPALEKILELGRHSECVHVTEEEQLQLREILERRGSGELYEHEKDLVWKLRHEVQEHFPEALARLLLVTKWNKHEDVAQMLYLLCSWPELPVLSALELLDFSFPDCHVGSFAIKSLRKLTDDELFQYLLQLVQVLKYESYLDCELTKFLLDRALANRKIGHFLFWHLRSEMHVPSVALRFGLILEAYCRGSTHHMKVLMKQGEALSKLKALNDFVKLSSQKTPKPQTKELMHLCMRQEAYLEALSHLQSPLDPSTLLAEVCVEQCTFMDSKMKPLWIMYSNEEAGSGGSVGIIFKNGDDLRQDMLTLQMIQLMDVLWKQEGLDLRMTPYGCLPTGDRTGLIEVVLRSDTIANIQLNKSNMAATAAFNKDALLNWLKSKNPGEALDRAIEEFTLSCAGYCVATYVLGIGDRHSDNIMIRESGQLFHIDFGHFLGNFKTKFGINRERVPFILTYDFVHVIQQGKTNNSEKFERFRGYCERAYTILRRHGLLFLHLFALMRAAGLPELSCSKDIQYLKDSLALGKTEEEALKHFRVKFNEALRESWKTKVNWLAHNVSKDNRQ

Jurkat [12] = experiment: Induction of apoptosis against human Jurkat cells assessed as viable cells at 10 uM measured for 24 hrs by Annexin V-FITC/propidium iodide staining based flow cytometry (reference value: 94.2 %); type: functional; conditions: read-out: Activity
HepG2 = experiment: Cytotoxicity against human HepG2 cells assessed as reduction in cell viability incubated for 24 hrs by CCK-8 assay; type: functional, cell-based; conditions: HepG2, 24 h
Jurkat [13] = experiment: Induction of apoptosis against human Jurkat cells assessed as viable cells at 1 uM measured for 24 hrs by Annexin V-FITC/propidium iodide staining based flow cytometry (reference value: 94.2 %); type: functional; conditions: read-out: Activity
THP-1 [14] = experiment: Induction of apoptosis against human THP-1 cells assessed as early apoptotic cells at 0.1 uM measured for 24 hrs by Annexin V-FITC/propidium iodide staining based flow cytometry (reference value: 10.3%); type: functional
RAW264.7 = experiment: Cytotoxicity against mouse RAW264.7 cells assessed as reduction in cell viability incubated for 24 hrs by CCK-8 assay; type: functional, cell-based; conditions: RAW264.7, 24 h
Jurkat [15] = experiment: Induction of apoptosis against human Jurkat cells assessed as late apoptotic cells at 1 uM measured for 24 hrs by Annexin V-FITC/propidium iodide staining based flow cytometry (reference value: 0.00%); type: functional
[16] = target: T2, Serine/threonine-protein kinase AKT (Homo sapiens) (UniProt P31751+Q9Y243+P31749); experiment: Inhibition of AKT phosphorylation in human THP-1 cells incubated for 1 to 12 hrs by Western blot analysis relative to control; type: cell-based; conditions: dose 0.1-10 µM, time 1-12 hrs
[17] = target: T2, Serine/threonine-protein kinase AKT (Homo sapiens); experiment: Inhibition of AKT phosphorylation in human Jurkat cells at 1 uM incubated for 1 to 12 hrs by Western blot analysis relative to control; type: cell-based; conditions: time 1-12 hrs
Jurkat [18] = experiment: Induction of apoptosis against human Jurkat cells assessed as necrotic cells at 0.1 uM measured for 24 hrs by Annexin V-FITC/propidium iodide staining based flow cytometry (reference value: 0.00%); type: functional
THP-1 [19] = experiment: Cytotoxicity against human THP-1 cells assessed as reduction in cell viability incubated for 24 hrs by CCK-8 assay; type: functional, cell-based; conditions: THP-1, 24 h
[20] = target: T2, Serine/threonine-protein kinase AKT (Homo sapiens); experiment: Inhibition of AKT phosphorylation in human Jurkat cells incubated for 1 to 12 hrs by Western blot analysis relative to control; type: cell-based; conditions: dose 0.1-10 µM, time 1-12 hrs
Jurkat [21] = experiment: Upregulation of phosphorylated ERK1/2 protein expression in human Jurkat cells measured for 3 hrs; type: functional, cell-based; conditions: dose 0.1-10 µM

T2 sequence (P31749 whole entry, looked up): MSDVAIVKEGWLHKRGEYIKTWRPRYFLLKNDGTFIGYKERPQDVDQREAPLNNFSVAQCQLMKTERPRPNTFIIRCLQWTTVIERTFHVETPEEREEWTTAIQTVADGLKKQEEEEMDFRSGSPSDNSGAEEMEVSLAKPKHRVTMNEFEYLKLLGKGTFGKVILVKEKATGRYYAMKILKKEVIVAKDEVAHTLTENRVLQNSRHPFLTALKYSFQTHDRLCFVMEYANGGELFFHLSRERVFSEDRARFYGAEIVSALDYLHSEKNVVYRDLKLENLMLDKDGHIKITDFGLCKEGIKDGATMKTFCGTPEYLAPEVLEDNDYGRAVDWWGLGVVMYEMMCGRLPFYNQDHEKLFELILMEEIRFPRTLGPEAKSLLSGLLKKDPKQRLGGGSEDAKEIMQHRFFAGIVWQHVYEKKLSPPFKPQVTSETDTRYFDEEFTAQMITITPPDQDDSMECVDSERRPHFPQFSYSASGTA
T2 sequence (P31751 whole entry, looked up): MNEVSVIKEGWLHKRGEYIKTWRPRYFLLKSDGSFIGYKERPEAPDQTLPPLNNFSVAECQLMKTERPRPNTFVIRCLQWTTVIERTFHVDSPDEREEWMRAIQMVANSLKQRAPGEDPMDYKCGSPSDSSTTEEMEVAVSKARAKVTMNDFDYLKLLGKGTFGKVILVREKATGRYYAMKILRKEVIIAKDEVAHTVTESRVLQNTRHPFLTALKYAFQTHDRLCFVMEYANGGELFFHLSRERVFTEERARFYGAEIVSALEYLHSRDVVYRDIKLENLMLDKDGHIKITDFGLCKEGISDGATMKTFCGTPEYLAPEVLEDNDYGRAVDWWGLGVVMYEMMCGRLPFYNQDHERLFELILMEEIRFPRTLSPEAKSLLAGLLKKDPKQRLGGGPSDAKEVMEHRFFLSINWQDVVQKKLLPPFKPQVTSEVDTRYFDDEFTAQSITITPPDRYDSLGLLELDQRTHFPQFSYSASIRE
T2 sequence (Q9Y243 whole entry, looked up): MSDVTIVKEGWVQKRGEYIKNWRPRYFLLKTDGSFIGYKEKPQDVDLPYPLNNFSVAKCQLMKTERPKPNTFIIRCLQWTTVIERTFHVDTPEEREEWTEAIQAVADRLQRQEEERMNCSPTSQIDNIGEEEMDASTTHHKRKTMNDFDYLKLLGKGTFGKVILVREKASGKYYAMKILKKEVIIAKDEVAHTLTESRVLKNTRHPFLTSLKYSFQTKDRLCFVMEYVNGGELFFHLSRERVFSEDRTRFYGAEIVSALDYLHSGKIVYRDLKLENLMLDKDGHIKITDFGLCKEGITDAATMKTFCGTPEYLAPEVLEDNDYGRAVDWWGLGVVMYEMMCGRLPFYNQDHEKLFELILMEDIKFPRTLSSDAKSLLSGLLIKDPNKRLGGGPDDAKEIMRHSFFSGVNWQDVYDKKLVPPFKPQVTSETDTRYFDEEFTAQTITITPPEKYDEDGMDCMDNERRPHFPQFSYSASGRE
Sequence of Phosphatidylinositol 4,5-bisphosphate 3-kinase catalytic subunit beta isoform (P42338 whole entry, canonical isoform): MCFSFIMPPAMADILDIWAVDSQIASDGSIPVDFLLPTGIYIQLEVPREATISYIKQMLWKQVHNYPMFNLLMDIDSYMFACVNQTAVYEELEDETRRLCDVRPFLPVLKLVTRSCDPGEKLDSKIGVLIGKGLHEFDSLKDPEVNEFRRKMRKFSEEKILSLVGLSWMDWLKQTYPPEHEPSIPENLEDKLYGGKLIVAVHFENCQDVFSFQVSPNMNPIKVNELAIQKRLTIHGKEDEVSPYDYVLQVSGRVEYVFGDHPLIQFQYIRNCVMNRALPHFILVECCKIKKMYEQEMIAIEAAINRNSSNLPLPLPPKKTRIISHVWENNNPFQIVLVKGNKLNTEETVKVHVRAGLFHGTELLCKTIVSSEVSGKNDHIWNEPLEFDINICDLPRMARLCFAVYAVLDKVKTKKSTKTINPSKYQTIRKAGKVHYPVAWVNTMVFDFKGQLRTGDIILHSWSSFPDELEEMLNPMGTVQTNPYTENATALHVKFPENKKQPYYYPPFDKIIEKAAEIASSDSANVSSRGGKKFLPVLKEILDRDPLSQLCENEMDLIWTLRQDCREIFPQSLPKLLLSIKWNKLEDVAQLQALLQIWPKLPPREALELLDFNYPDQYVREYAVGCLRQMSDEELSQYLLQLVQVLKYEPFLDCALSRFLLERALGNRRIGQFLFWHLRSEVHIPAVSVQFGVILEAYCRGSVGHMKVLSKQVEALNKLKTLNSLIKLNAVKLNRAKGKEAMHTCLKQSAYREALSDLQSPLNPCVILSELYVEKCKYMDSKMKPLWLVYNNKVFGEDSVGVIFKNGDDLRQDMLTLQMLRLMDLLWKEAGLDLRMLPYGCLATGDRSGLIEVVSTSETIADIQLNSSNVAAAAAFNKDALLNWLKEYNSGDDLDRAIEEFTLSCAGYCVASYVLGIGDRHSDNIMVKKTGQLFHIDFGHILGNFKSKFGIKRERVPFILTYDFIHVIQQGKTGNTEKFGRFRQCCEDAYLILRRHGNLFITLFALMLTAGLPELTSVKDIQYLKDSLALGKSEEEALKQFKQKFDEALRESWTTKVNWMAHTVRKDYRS
Sequence of Phosphatidylinositol 4,5-bisphosphate 3-kinase catalytic subunit gamma isoform (P48736 whole entry, looked up, canonical isoform): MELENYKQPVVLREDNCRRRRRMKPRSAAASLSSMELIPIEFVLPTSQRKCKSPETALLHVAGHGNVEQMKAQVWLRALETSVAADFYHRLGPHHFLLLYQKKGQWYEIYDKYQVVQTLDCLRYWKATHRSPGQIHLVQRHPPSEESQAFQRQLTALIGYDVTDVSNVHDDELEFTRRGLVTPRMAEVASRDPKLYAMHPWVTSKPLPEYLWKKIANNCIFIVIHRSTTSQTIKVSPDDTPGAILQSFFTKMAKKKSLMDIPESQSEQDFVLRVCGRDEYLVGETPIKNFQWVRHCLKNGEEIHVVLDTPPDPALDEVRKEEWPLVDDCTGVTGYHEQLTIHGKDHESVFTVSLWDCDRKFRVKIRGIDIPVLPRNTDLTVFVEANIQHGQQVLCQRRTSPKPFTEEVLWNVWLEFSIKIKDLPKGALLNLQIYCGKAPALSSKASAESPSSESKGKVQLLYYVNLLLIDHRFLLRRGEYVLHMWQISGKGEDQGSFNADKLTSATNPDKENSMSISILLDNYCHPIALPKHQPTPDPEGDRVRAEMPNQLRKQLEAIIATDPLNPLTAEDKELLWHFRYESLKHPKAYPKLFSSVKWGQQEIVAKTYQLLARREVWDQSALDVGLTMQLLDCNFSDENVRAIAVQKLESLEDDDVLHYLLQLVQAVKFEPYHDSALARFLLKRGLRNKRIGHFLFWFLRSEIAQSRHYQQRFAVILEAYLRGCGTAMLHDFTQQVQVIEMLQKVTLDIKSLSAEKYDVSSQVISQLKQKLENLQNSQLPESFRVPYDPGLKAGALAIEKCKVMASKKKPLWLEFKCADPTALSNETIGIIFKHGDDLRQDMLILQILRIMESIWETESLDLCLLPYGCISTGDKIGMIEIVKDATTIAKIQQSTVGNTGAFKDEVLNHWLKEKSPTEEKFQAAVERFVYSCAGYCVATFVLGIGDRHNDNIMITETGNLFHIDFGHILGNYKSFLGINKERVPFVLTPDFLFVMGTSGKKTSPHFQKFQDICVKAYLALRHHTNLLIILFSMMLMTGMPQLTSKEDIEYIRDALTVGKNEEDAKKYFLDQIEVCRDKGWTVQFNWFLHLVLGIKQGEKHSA

IC50 [2]: 0.109 µM
inhibition [7]: 53%
inhibition [11]: 16%
inhibition [16]: Dose-Dependent Effect
inhibition [17]: Active
inhibition [20]: Dose-Dependent Effect
Compound: COc1ccc(C#Cc2cccc3cc(C(C)Nc4ncnc5[nH]cnc45)n(-c4ccccc4)c(=O)c23)cc1 (stereo not drawn)
Activity (Jurkat [1]): Active
Activity (Jurkat [3]): 17.7%
Activity (Jurkat [4]): 0.025%
Activity (THP-1 [5]): 4.63%
Activity (THP-1 [6]): 0.125%
Activity (THP-1 [8]): 24.6%
Activity (Jurkat [9]): 69.7%
Activity (Jurkat [10]): 0.047%
viability at 10 µM (Jurkat [12]): 30.2%
IC50 (HepG2): > 100 µM
viability at 1 µM (Jurkat [13]): 82.3%
Activity (THP-1 [14]): 25.3%
IC50 (RAW264.7): 4.54 µM
Activity (Jurkat [15]): 0.042%
Activity (Jurkat [18]): 0%
IC50 (THP-1 [19]): 7.47 µM
Activity (Jurkat [21]): Dose-Dependent Effect
